Measured values from patent publication US6841172B1, “Method for iron delivery to a patient by transfer from dialysate” (HemoCleanse, Inc., priority 1996, dated 2005).

Experiments:
[1] = Transfer of ferrous gluconate from dialysate into blood by hemodialysis through a PAN membrane dialyzer; format: in vitro ADME, bovine
Protocol: A two liter volume of bovine blood (hematocrit adjusted from 49 to 40 with saline) which had been stored with heparin anticoagulation for 24 hours was dialyzed using a PAN membrane dialyzer. The volume was maintained at 2 liters throughout the experiment by adding saline.
A sample of the blood was taken prior to dialysis of the blood and tested for iron content. The iron content of the pre-dialysis blood was 110 μg/dl and the transferrin iron binding capacity was 234 μg/dl. Dialysis was then started using the following equipment and conditions:
The circuit was primed with dialysate, prepared as described above, pumps were adjusted for proper flow, and then the blood side was drained of dialysate by pulling the Blood In tube out of the dialysis bath and allowing air to fill this side.
Assays were performed to determine plasma iron concentrations at 0, 5, 10, 20 and 30 minutes. […] This transfer indicates an avidity of plasma for the iron complex, even higher than the iron binding capacity of transferrin.

red blood cells = assay: Monitoring of hemolysis in experimental dialysis (plasma absorbance at 420 and 585 nm); parameters: species or system bovine; details: compared with similar experiments without iron in the dialysate
Description: To determine whether the method of Example 1 would cause hemolysis (lysis of red blood cells with the liberation of hemoglobin), absorbance data at 420 and 585 nm was collected for the plasma at various stages of the experiment described in Example 1.

ferrous gluconate
plasma iron level ([1]; after 30 minutes of dialysis, dialysate iron 125 μg/dl, pre-dialysis blood iron 110 μg/dl, transferrin iron binding capacity 234 μg/dl): ~500 µg/dL
percent saturation of transferrin ([1]; after only a few minutes of hemodialysis, dialysate iron 125 μg/dl): 100%
iron transferred per dialysis treatment ([1]; dialysate ferrous gluconate increased to 4 mg/dl): 15 mg
iron transferred to the plasma ([1]; if the initial rate of iron transfer is continued for 180 minutes, dialysate 1 mg/dl ferrous gluconate): approximately 4 mg
level of hemolysis during dialysis (red blood cells): not higher than that of similar experiments conducted without iron in the dialysate
